In paper PMC8700683, “A Novel Neutral and Mesophilic β-Glucosidase from Coral Microorganisms for Efficient Preparation of Gentiooligosaccharides” (Foods, 2021):

Experiments:
[1] = test system: T1, Blg163; assay: hydrolysis kinetics, […] substrate; assay type: biochemical, uncultured bacterium (coral microbial metagenome); conditions: citrate buffer, pH 7.0, 30 °C, 5 min
T1 construct: full-length ORF 1341 bp, 447 residues (Met1 to Ser447), GH1; pEASY-E1 vector, His-tag (Ni-NTA) apparently kept; expressed in E. coli BL21(DE3) pLysS; best hits Rhodobacteraceae bacterium NVK46632.1 (homologue)

[2] = test system: T1, Blg163; assay: p-nitrophenol release, absorbance at […] nm; assay type: biochemical, uncultured bacterium (coral microbial metagenome); conditions: citrate buffer, pH 7.0, 30 °C, 5 min

| Km [1] | Km [2] | SMILES |
| --- | --- | --- |
| 450 µM |  | OC[C@H]1O[C@@H](O[C@H]2[C@H](O)[C@@H](O)C(O)O[C@@H]2CO)[C@H](O)[C@@H](O)[C@@H]1O (stereo partly drawn) [cellobiose] |
| 720 µM |  | OC[C@H]1O[C@@H](OC[C@H]2OC(O)[C@H](O)[C@@H](O)[C@@H]2O)[C@H](O)[C@@H](O)[C@@H]1O (stereo partly drawn) [gentiobiose] |
|  | 320 µM | O=[N+]([O-])c1ccc(O[C@@H]2O[C@H](CO)[C@@H](O)[C@H](O)[C@H]2O)cc1 [p-Nitrophenyl-β-D-glucopyranoside] |
